Assays:
[1] = molecular target: Serine/threonine-protein kinase PknB (Mycobacterium tuberculosis) (UniProt P9WI81); settings: Compound concentration 1000.0 nM
[2] = molecular target: Phosphatidylinositol 3-kinase C2 domain-containing subunit gamma (Homo sapiens) (UniProt O75747); settings: Compound concentration 1000.0 nM
[3] = molecular target: MAP kinase-activated protein kinase 5 (Homo sapiens) (UniProt Q8IW41); settings: Compound concentration 1000.0 nM
[4] = molecular target: 5-hydroxytryptamine receptor 1D (Homo sapiens) (UniProt P28221); settings: Compound concentration 10.0 uM
[5] = molecular target: Dual specificity mitogen-activated protein kinase kinase 1 (Homo sapiens) (UniProt Q02750); settings: Compound concentration 1000.0 nM
[6] = molecular target: Insulin receptor-related protein (Homo sapiens) (UniProt P14616); settings: Compound concentration 1000.0 nM
[7] = molecular target: Tyrosine-protein kinase ABL1 (Homo sapiens) (UniProt P00519); settings: Compound concentration 1000.0 nM
[8] = molecular target: Protein-tyrosine kinase 2-beta (Homo sapiens) (UniProt Q14289); settings: Compound concentration 1000.0 nM
[9] = molecular target: Hormonally up-regulated neu tumor-associated kinase (Homo sapiens) (UniProt P57058); settings: Compound concentration 1000.0 nM
[10] = molecular target: Interferon-induced, double-stranded RNA-activated protein kinase (Homo sapiens) (UniProt P19525); settings: Compound concentration 1000.0 nM
[11] = molecular target: Cyclin-dependent kinase 4 (Homo sapiens) (UniProt P11802); settings: Compound concentration 1000.0 nM
[12] = molecular target: Serine/threonine-protein kinase Sgk1 (Homo sapiens) (UniProt O00141); settings: Compound concentration 1000.0 nM
[13] = molecular target: Dual specificity protein kinase CLK3 (Homo sapiens) (UniProt P49761); settings: Compound concentration 1000.0 nM
[14] = molecular target: Serine/threonine-protein kinase NIM1 (Homo sapiens) (UniProt Q8IY84); settings: Compound concentration 1000.0 nM
[15] = molecular target: Tyrosine-protein kinase Yes (Homo sapiens) (UniProt P07947); settings: Compound concentration 1000.0 nM
[16] = molecular target: Tyrosine-protein kinase FRK (Homo sapiens) (UniProt P42685); settings: Compound concentration 1000.0 nM
[17] = molecular target: Ankyrin repeat and protein kinase domain-containing protein 1 (Homo sapiens) (UniProt Q8NFD2); settings: Compound concentration 1000.0 nM
[18] = molecular target: Beta-2 adrenergic receptor (Homo sapiens) (UniProt P07550); settings: Compound concentration 10.0 uM
[19] = molecular target: Serine/threonine-protein kinase Nek11 (Homo sapiens) (UniProt Q8NG66); settings: Compound concentration 1000.0 nM
[20] = molecular target: Mitogen-activated protein kinase kinase kinase 7 (Homo sapiens) (UniProt O43318); settings: Compound concentration 1000.0 nM
[21] = molecular target: Ephrin type-B receptor 6 (Homo sapiens) (UniProt O15197); settings: Compound concentration 1000.0 nM
[22] = molecular target: Dual specificity mitogen-activated protein kinase kinase 4 (Homo sapiens) (UniProt P45985); settings: Compound concentration 1000.0 nM
[23] = molecular target: 3-phosphoinositide-dependent protein kinase 1 (Homo sapiens) (UniProt O15530); settings: Compound concentration 1000.0 nM
[24] = molecular target: Serine/threonine-protein kinase pim-1 (Homo sapiens) (UniProt P11309); settings: Compound concentration 1000.0 nM
[25] = molecular target: Serine/threonine-protein kinase 3 (Homo sapiens) (UniProt Q13188); settings: Compound concentration 1000.0 nM
[26] = molecular target: Serine/threonine-protein kinase Chk2 (Homo sapiens) (UniProt O96017); settings: Compound concentration 1000.0 nM
[27] = molecular target: Serine/threonine-protein kinase Nek10 (Homo sapiens) (UniProt Q6ZWH5); settings: Compound concentration 1000.0 nM
[28] = molecular target: 1-phosphatidylinositol 3-phosphate 5-kinase (Homo sapiens) (UniProt Q9Y2I7); settings: Compound concentration 1000.0 nM
[29] = molecular target: Epithelial discoidin domain-containing receptor 1 (Homo sapiens) (UniProt Q08345); settings: Compound concentration 1000.0 nM
[30] = molecular target: Cytoplasmic tyrosine-protein kinase BMX (Homo sapiens) (UniProt P51813); settings: Compound concentration 1000.0 nM
[31] = molecular target: Serine/threonine-protein kinase RIO3 (Homo sapiens) (UniProt O14730); settings: Compound concentration 1000.0 nM
[32] = molecular target: Serine/threonine-protein kinase 25 (Homo sapiens) (UniProt O00506); settings: Compound concentration 1000.0 nM
[33] = molecular target: LIM domain kinase 2 (Homo sapiens) (UniProt P53671); settings: Compound concentration 1000.0 nM
[34] = molecular target: Cyclin-dependent kinase 4 (Homo sapiens) (UniProt P11802); settings: Compound concentration 1000.0 nM; remark: listed apart in the source
[35] = tested on: Tyrosine-protein kinase ABL1 (Homo sapiens), P00519 [E255K]; settings: Compound concentration 1000.0 nM
[36] = molecular target: Serine/threonine-protein kinase pim-3 (Homo sapiens) (UniProt Q86V86); settings: Compound concentration 1000.0 nM
[37] = molecular target: Serine/threonine-protein kinase 16 (Homo sapiens) (UniProt O75716); settings: Compound concentration 1000.0 nM
[38] = molecular target: Leucine-rich repeat serine/threonine-protein kinase 2 (Homo sapiens) (UniProt Q5S007); settings: Compound concentration 1000.0 nM
[39] = molecular target: 5-hydroxytryptamine receptor 2C (Homo sapiens) (UniProt P28335); settings: Compound concentration 10.0 uM
[40] = molecular target: Myosin light chain kinase 2, skeletal/cardiac muscle (Homo sapiens) (UniProt Q9H1R3); settings: Compound concentration 1000.0 nM
[41] = tested on: Receptor-type tyrosine-protein kinase FLT3 (Homo sapiens), P36888 [UNDEFINED MUTATION]; settings: Compound concentration 1000.0 nM
[42] = molecular target: Dual serine/threonine and tyrosine protein kinase (Homo sapiens) (UniProt Q6XUX3); settings: Compound concentration 1000.0 nM
[43] = molecular target: Mitogen-activated protein kinase 13 (Homo sapiens) (UniProt O15264); settings: Compound concentration 1000.0 nM
[44] = molecular target: SRSF protein kinase 1 (Homo sapiens) (UniProt Q96SB4); settings: Compound concentration 1000.0 nM
[45] = molecular target: Phosphorylase b kinase gamma catalytic chain, skeletal muscle/heart isoform (Homo sapiens) (UniProt Q16816); settings: Compound concentration 1000.0 nM

Sequence of Cyclin-dependent kinase 4 (Homo sapiens) (P11802 whole entry): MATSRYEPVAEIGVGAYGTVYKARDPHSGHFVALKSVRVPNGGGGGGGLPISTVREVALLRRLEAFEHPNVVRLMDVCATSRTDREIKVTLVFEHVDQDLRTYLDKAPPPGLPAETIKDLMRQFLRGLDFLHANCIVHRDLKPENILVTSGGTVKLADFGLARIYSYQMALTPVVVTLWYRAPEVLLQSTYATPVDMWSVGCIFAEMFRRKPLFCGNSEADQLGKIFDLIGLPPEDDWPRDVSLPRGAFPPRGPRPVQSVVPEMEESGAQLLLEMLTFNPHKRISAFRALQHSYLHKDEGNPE
Sequence of Phosphatidylinositol 3-kinase C2 domain-containing subunit gamma (Homo sapiens) (O75747 whole entry, the tested form may be a part): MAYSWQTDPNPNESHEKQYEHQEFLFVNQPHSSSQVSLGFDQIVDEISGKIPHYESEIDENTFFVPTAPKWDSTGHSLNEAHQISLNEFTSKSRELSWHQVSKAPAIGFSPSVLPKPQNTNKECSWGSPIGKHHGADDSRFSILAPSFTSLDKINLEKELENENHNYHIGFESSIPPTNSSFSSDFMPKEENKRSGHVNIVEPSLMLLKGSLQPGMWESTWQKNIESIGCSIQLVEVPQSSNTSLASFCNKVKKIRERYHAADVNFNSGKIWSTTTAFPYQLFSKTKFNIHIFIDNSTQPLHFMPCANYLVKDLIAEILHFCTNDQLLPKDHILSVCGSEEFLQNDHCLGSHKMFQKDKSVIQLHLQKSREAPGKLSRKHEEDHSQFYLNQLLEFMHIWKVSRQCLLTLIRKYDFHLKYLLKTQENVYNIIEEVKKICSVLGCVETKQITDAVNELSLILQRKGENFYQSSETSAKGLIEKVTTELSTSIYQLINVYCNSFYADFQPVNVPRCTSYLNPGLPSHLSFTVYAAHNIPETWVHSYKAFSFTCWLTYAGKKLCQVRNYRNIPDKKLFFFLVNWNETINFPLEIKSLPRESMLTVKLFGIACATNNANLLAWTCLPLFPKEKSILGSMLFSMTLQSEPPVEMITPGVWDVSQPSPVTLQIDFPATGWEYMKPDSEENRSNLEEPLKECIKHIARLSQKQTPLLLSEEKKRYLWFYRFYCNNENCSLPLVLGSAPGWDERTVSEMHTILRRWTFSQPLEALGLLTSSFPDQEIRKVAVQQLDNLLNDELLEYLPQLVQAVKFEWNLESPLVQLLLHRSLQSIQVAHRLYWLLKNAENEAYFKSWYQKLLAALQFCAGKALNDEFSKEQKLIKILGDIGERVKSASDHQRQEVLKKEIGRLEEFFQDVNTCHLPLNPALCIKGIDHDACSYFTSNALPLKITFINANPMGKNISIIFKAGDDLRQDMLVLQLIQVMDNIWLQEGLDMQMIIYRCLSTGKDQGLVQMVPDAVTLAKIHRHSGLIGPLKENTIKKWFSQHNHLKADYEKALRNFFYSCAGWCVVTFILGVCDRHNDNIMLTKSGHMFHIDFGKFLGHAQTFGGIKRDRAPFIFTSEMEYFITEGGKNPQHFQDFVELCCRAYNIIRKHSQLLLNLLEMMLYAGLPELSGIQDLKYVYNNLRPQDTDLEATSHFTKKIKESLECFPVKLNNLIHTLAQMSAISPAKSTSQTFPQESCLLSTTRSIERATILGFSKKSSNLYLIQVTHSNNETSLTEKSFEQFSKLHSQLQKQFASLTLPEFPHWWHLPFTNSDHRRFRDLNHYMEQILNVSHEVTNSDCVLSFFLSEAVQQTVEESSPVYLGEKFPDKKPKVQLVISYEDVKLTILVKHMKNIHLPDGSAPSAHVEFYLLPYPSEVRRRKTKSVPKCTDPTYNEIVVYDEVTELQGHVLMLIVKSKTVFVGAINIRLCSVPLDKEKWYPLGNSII
Sequence of Tyrosine-protein kinase Yes (Homo sapiens) (P07947 2-543 limits assumed): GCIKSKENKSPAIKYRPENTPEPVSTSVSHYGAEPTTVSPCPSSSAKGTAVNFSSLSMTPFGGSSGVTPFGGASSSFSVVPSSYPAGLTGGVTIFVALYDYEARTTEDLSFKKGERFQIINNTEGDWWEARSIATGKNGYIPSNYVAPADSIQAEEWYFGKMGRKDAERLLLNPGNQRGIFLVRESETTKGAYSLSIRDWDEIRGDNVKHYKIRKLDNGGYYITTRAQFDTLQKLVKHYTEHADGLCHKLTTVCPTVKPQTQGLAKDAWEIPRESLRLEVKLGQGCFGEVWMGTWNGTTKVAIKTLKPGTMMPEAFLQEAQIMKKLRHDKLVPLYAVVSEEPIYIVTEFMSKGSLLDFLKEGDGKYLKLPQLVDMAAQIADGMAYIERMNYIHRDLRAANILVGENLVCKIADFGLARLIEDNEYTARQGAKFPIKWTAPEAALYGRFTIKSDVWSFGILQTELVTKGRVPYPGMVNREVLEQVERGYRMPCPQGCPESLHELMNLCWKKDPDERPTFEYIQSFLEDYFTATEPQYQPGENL
Sequence of Ankyrin repeat and protein kinase domain-containing protein 1 (Homo sapiens) (Q8NFD2 whole entry, the tested form may be a part): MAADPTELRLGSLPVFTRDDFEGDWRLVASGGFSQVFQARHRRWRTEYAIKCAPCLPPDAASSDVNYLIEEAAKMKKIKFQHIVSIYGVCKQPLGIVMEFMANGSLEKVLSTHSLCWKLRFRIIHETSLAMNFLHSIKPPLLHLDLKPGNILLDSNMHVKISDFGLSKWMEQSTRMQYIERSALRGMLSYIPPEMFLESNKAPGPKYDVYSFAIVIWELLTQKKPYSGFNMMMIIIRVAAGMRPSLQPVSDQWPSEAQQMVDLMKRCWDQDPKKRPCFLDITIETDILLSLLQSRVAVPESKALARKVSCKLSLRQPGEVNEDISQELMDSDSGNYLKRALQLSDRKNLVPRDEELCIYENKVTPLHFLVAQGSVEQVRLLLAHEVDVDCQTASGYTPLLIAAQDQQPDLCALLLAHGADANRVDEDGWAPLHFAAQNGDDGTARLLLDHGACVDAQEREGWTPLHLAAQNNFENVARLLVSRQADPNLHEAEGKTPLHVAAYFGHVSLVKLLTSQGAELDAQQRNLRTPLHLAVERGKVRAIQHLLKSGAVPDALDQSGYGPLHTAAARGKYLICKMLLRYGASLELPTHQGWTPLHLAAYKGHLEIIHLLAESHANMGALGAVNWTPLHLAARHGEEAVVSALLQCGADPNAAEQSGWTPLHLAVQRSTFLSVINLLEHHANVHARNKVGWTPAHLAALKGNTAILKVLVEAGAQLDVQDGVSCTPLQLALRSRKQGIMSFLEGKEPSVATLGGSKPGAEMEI
Sequence of Serine/threonine-protein kinase Chk2 (Homo sapiens) (O96017 whole entry): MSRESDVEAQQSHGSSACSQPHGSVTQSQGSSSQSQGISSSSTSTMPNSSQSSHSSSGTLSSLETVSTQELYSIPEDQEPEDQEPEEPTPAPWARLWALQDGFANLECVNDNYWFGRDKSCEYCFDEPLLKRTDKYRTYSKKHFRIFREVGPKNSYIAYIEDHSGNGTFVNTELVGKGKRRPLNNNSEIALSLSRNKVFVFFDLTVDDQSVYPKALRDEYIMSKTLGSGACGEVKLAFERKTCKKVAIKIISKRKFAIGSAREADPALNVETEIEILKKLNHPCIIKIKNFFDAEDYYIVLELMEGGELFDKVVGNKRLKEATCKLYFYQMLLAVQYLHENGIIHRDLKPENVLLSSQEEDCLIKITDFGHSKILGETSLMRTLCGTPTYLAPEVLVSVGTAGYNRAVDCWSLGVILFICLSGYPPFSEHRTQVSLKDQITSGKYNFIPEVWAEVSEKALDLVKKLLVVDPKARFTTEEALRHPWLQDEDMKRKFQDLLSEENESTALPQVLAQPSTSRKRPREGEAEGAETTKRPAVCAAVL
Sequence of Serine/threonine-protein kinase Sgk1 (Homo sapiens) (O00141 whole entry): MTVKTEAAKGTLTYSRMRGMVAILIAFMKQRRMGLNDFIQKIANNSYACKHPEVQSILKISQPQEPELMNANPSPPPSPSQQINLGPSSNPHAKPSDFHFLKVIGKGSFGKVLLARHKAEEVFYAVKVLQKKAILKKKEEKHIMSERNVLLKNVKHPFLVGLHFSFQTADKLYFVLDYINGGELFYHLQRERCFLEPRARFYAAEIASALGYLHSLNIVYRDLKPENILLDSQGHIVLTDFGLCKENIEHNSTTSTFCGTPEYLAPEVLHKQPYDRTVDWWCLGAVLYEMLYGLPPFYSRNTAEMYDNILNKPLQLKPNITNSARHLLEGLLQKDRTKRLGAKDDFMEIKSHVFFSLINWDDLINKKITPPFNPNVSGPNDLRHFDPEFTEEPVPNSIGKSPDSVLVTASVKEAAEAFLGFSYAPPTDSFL
Sequence of Beta-2 adrenergic receptor (Homo sapiens) (P07550 whole entry, looked up): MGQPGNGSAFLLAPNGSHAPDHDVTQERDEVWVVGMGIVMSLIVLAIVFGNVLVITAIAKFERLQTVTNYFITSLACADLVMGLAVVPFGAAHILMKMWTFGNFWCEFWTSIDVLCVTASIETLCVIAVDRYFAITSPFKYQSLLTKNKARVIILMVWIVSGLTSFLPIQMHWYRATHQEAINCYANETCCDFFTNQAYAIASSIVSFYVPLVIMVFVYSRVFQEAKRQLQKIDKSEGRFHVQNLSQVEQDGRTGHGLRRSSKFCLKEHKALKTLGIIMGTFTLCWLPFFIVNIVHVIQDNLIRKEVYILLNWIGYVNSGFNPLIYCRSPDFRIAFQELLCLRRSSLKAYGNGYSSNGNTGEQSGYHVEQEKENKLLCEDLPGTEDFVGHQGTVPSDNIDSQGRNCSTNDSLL

CCC(=O)N[C@H]1CC[C@@H](C(=O)N(C)c2ccc(-c3nc4ccccc4o3)cc2)C1 [BI 99179]
inactive: residual activity [1] 86% | residual activity [2] 86% | residual activity [3] 73% | inhibition [4] 6.85% | residual activity [5] 89% | residual activity [6] 100% | residual activity [7] 72% | residual activity [8] 100% | residual activity [9] 100% | residual activity [10] 100% | residual activity [11] 79% | residual activity [12] 100% | residual activity [13] 91% | residual activity [14] 88% | residual activity [15] 82% | residual activity [16] 100% | residual activity [17] 66% | inhibition [18] 1.55% | residual activity [19] 86% | residual activity [20] 86% | residual activity [21] 100% | residual activity [22] 95% | residual activity [23] 90% | residual activity [24] 100% | residual activity [25] 100% | residual activity [26] 100% | residual activity [27] 80% | residual activity [28] 94% | residual activity [29] 100% | residual activity [30] 100% | residual activity [31] 92% | residual activity [32] 100% | residual activity [33] 100% | residual activity [34] 78% | residual activity [35] 75% | residual activity [36] 100% | residual activity [37] 100% | residual activity [38] 71% | inhibition [39] 8.87% | residual activity [40] 85% | residual activity [41] 84% | residual activity [42] 87% | residual activity [43] 85% | residual activity [44] 100% | residual activity [45] 100%

CCC(=O)N[C@@H]1CC[C@H](C(=O)N(C)c2ccc(-c3nc4ccccc4o3)cc2)C1 [BI 99990]
inactive: residual activity [1] 78% | residual activity [2] 57% | residual activity [3] 100% | inhibition [4] -8.27% | residual activity [5] 100% | residual activity [6] 100% | residual activity [7] 96% | residual activity [8] 100% | residual activity [9] 100% | residual activity [10] 100% | residual activity [11] 96% | residual activity [12] 100% | residual activity [13] 100% | residual activity [14] 99% | residual activity [15] 100% | residual activity [16] 100% | residual activity [17] 100% | inhibition [18] 0.247% | residual activity [19] 100% | residual activity [20] 100% | residual activity [21] 100% | residual activity [22] 100% | residual activity [23] 100% | residual activity [24] 100% | residual activity [25] 100% | residual activity [26] 100% | residual activity [27] 100% | residual activity [28] 93% | residual activity [29] 100% | residual activity [30] 98% | residual activity [31] 100% | residual activity [32] 100% | residual activity [33] 100% | residual activity [34] 97% | residual activity [35] 100% | residual activity [36] 96% | residual activity [37] 100% | residual activity [38] 100% | inhibition [39] 5.92% | residual activity [40] 79% | residual activity [41] 76% | residual activity [42] 93% | residual activity [43] 100% | residual activity [44] 100% | residual activity [45] 100%
